Results reported in article PMC11594716, “Rhodanine–Piperazine Hybrids as Potential VEGFR, EGFR, and HER2 Targeting Anti-Breast Cancer Agents” (International Journal of Molecular Sciences, 2024).

Columns and labels:
Format in all cases: cell-based, human
[1] = system: MDA-MB-468 cell line; assay: MTT cytotoxicity assay, MDA-MB-468 breast cancer cells; conditions: for Selectivity index SI MDA-MB-468: IC50(BJ)/IC50(MDA-MB-468); for IC50: MTT, 48 h incubation
Method: (§1) Cytotoxicity of tested compounds was evaluated against breast cancer cell lines (MDA-MB-468, MDA-MB-231, MCF-7, and T47D) and normal human fibroblast BJ cell line as a control. All tested cell lines were obtained from the American Type Culture Collection (ATCC, Manassas, VA, USA). MDA-MB-468 and MDA-MB-231 were cultured in F12-K medium (Corning, New York City, NY, USA), MCF-7 and BJ in EMEM medium (Corning, New York City, NY, USA), and T47D in RPMI medium (Corning, New York City, NY, USA). All of these culture media were supplemented with 10% heat-inactivated FBS (PAN-Biotech, Aidenbach, Germany) and antibiotics (100 U/mL of penicillin, 100 μg/mL of streptomycin, and 0.25 μg/mL amphotericin B, respectively; Sigma-Aldrich, St. Louis, MO, USA) in a humidified 5% CO2 atmosphere at 37 °C. The cells were used exclusively for 10 passages.
(§2) The cells were seeded in 96-well plates at a concentration of 5 × 10^4 cells/mL and incubated at 37 °C with 5% CO2 air. When 70–80% culture confluence was achieved the tested compounds were added. […] The cell viability assessment was measured using the MTT assay (Invitrogen, Waltham, MA, USA) based on the ability of living cells to reduce […] tetrazolium salt, by cellular dehydrogenases, to water-insoluble purple formazan crystals. MTT solution (4 mg/mL) was added to the culture after 48 h of incubation with the tested compounds. Following 4 h of incubation, the medium with MTT salt was removed and the obtained crystals were dissolved in DMSO. The solution absorbency was measured at 570 nm using a PowerWave™ microplate spectrophotometer (Bio-Tek Instruments, Winooski, VT, USA). Each experiment was performed twice with measurement in triplicate. The IC50 values were determined using the AAT Bioquest IC50 calculator with a four parameter logistic regression model (AAT Bioquest, Inc. Pleasanton, CA, USA (14 April 2024). Quest Graph™ IC50 Calculator. AAT Bioquest. https://www.aatbio.com/tools/ic50-calculator, accessed on 12 October 2024).

[2] = system: MDA-MB-231 cell line; assay: MTT cytotoxicity assay, MDA-MB-231 breast cancer cells; conditions: for Selectivity index SI MDA-MB-231: IC50(BJ)/IC50(MDA-MB-231); for IC50: MTT, 48 h incubation
Method: as §1, §2

[3] = system: T47D cell line; assay: MTT cytotoxicity assay, T47D breast cancer cells; conditions: for Selectivity index SI T47D: IC50(BJ)/IC50(T47D); for IC50: MTT, 48 h incubation
Method: as §1, §2

[4] = system: MCF-7 cell line; assay: MTT cytotoxicity assay, MCF-7 breast cancer cells; conditions: for Selectivity index SI MCF-7: IC50(BJ)/IC50(MCF-7); for IC50: MTT, 48 h incubation
Method: as §1, §2

Compound	Selectivity index SI MDA-MB-468 [1]	IC50 [1] [µM]	Selectivity index SI MDA-MB-231 [2]	IC50 [2] [µM]	Selectivity index SI T47D [3]	IC50 [3] [µM]	Selectivity index SI MCF-7 [4]	IC50 [4] [µM]	IC50 ([1]; Homo sapiens, MDA-MB-468) [µM]	IC50 ([2]; Homo sapiens, MDA-MB-231) [µM]	IC50 ([3]; Homo sapiens, T47D) [µM]	IC50 ([4]; Homo sapiens, MCF7) [µM]
5-{[4-(3-Fluoromethylphenyl)piperazin-1-yl]methylidene}-2-thioxo-1,3-thiazolidin-4-one [Compound 9]	3.17	63	1	> 200	1	> 200	2.74	73	–	–	–	–
O=C1NC(=S)SC1=CN1CCN(c2ccc(Cl)cc2)CC1 [Compound 5, 5-{[4-(4-Chlorophenyl)piperazin-1-yl]methylidene}-2-thioxo-1,3-thiazolidin-4-one]	1.19	–	1	–	1	–	1	–	168	> 200	> 200	> 200
O=C1NC(=S)SC1=CN1CCN(c2ccc([N+](=O)[O-])cc2)CC1 [Compound 6, 5-{[4-(4-Nitrophenyl)piperazin-1-yl]methylidene}-2-thioxo-1,3-thiazolidin-4-one]	3.7	–	2.17	–	1.08	–	1	–	54	92	186	> 200
O=C1NC(=S)SC1=CN1CCN(c2cccc(Cl)c2)CC1 [Compound 7, 5-{[4-(3-Chlorophenyl)piperazin-1-yl]methylidene}-2-thioxo-1,3-thiazolidin-4-one]	2.1	–	1.27	–	1	–	1	–	95	157	> 200	> 200
O=C1NC(=S)SC1=CN1CCN(c2cccc(F)c2)CC1 [Compound 8, 5-{[4-(3-Fluorophenyl)piperazin-1-yl]methylidene}-2-thioxo-1,3-thiazolidin-4-one]	1	–	1.29	–	1	–	1	–	> 200	155	> 200	> 200
O=C1NC(=S)SC1=CN1CCN(c2ccc(Cl)c(Cl)c2)CC1 [Compound 10, 5-{[4-(3,4-Dichlorophenyl)piperazin-1-yl]methylidene}-2-thioxo-1,3-thiazolidin-4-one]	3.63	–	1.90	–	2.2	–	6.45	–	55	105	91	31
COc1cccc(N2CCN(C=C3SC(=S)NC3=O)CC2)c1 [Compound 11, 5-{[4-(3-Methoxyphenyl)piperazin-1-yl]methylidene}-2-thioxo-1,3-thiazolidin-4-one]	2.17	–	1.25	–	1	–	1	–	92	160	> 200	> 200
O=C1NC(=S)SC1=CN1CCN(C(c2ccc(F)cc2)c2ccc(F)cc2)CC1 [Compound 12, 5-({4-[Bis(4-fluorophenyl)methyl]piperazin-1-yl}methylidene)-2-thioxo-1,3-thiazolidin-4-one]	5.41	–	1.36	–	1	–	5.56	–	37	147	> 200	36
O=C1C(=CN2CCN(c3ccc(Cl)cc3)CC2)SC(=S)N1c1ccccc1 [Compound 13, 5-{[4-(4-Chlorophenyl)piperazin-1-yl]methylidene}-3-phenyl-2-thioxo-1,3-thiazolidin-4-one]	1.12	–	1.38	–	1	–	2.99	–	179	145	> 200	67
O=C1C(=CN2CCN(c3cccc(Cl)c3)CC2)SC(=S)N1c1ccccc1 [Compound 14, 5-{[4-(3-Chlorophenyl)piperazin-1-yl]methylidene}-3-phenyl-2-thioxo-1,3-thiazolidin-4-one]	1	–	1	–	1	–	1	–	> 200	> 200	> 200	> 200
O=C1C(=CN2CCN(C(c3ccc(F)cc3)c3ccc(F)cc3)CC2)SC(=S)N1c1ccccc1 [Compound 15, 5-({4-[Bis(4-fluorophenyl)methyl]piperazin-1-yl}methylidene)-3-phenyl-2-thioxo-1,3-thiazolidin-4-one]	4.26	–	2.63	–	1.06	–	4.44	–	47	76	189	45
O=C1C(=CN2CCN(c3cccc(F)c3)CC2)SC(=S)N1c1ccccc1 [Compound 16, 5-{[4-(3-Fluorophenyl)piperazin-1-yl]methylidene}-3-phenyl-2-thioxo-1,3-thiazolidin-4-one]	1	–	1.12	–	1	–	1	–	> 200	179	> 200	> 200
COc1cccc(N2CCN(C=C3SC(=S)N(c4ccccc4)C3=O)CC2)c1 [Compound 17, 5-{[4-(3-Methoxyphenyl)piperazin-1-yl]methylidene}-3-phenyl-2-thioxo-1,3-thiazolidin-4-one]	3.45	–	1.69	–	1	–	1.18	–	58	118	> 200	169
